Data as given in publication PMC6319348, “Phase I/II clinical trial of the targeted chemotherapeutic drug, folate-tubulysin, in dogs with naturally-occurring invasive urothelial carcinoma” (Oncotarget, 2018).

Assays:
[1] = tested on: tumor xenograft mouse model; conditions: free drug; before effective anti-tumor activity could be observed; cited from earlier work
[2] = Plasma pharmacokinetic analysis; format: in vivo, dog; conditions: EC0347 in plasma after single EC0531 0.28 mg/kg IV
Description: Plasma pharmacokinetic analysis was conducted in six dogs sequentially enrolled in the trial. Blood was collected at 0, 2, 10, and 30 minutes, and at 1, 2, 8, and 24 hours after treatment.
Tubes were centrifuged, and plasma collected and stored at –80° C.
For the analysis of EC0531 concentrations in plasma, the EC0531 was extracted from 100 µL of dog plasma by 96-well solid phase extraction (SPE). Internal standard was added to all samples prior to extraction using a Strata X-A SPE plate (Phenomenex, Torrance, CA, USA). The eluate was collected, evaporated, and finally reconstituted with 85/15 water/acetonitrile with 40 mM mannitol. The extracted samples were injected into a UPLC/MS/MS system (Waters, Milford, MA, USA) using a BEH C18 reverse phase column (Waters) implementing a mobile phase gradient. Incurred sample concentrations were then back-calculated against a calibration curve prepared in blank dog plasma.
Internal standard was added to all samples prior to extraction using a 200 µL SLE+ plate (Biotage, Charlotte, NC, USA). The eluate was collected, evaporated, and reconstituted with acetone prior to sealing and heating the collection plate for 1 hour. After incubation, the extracts were again evaporated and finally reconstituted prior to injection. The extracted samples were injected into a UPLC/MS/MS system (Waters) using a BEH shield RP18 reverse phase column (Waters) and eluted under isocratic conditions. […] Incurred sample concentrations were then back-calculated against a calibration curve prepared in blank dog plasma. […] Samples were homogenized in buffer with a bead beater, or hand held homogenizer. Aliquots (100 µL) of each sample were spiked with 400 µL internal standards in acetone. The extracts were sealed and incubated at 55° C for 1 hour. The extracts were then evaporated to remove acetone, and reconstituted. Finally, reconstituted samples were analyzed by injection into a UPLC-MS/MS system (Waters) to evaluate concentrations of EC0531 and metabolites against a prepared calibration curve.

[3] = tested on: U.S. National Cancer Institute 60 tumor cell lines; parameters: method as in PMID 16489930; conditions: percent of cell lines tested; cited from earlier work
canine iUC = conditions: randomized trial in dogs with iUC; cited from earlier work

## CC[C@]1(O)C[C@@H]2CN(CCc3c([nH]c4ccccc34)[C@@](C(=O)OC)(c3cc4c(cc3OC)N(C)[C@H]3[C@@](O)(C(=O)NN)[C@H](O)[C@]5(CC)C=CCN6CC[C@]43[C@@H]65)C2)C1 [DAVLBH, desacetylvinblastine monohydrazide]
[1]
  toxicity in tumor xenograft mouse model: unacceptable toxicity

## CCCC(=O)OCN(C(=O)[C@@H](NC(=O)[C@H]1CCCCN1C)C(C)CC)[C@H](C[C@@H](OC(C)=O)c1nc(C(=O)N[C@@H](Cc2ccc(O)cc2)C[C@H](C)C(=O)NN)cs1)C(C)C (stereo partly drawn) [EC0347]
[2]; Avg of six dogs
  Cmax, EC0347 (free drug): 2.3 ng/mL
  Tmax, EC0347 (free drug): 12.0 min
[2]; individual dogs #1-6 (c0)
  Tmax, EC0347 (free drug): 10.0 min

## CC[C@H](C)[C@H](NC(=O)[C@H]1CCCCN1C)C(=O)N(COC(=O)CC(C)C)[C@H](C[C@@H](OC(C)=O)c1nc(C(=O)N[C@@H](Cc2ccc(O)cc2)C[C@H](C)C(=O)O)cs1)C(C)C [tubulysin A]
[3]
  cell lines with growth inhibition: 33%

## CC[C@]1(O)C[C@@H]2CN(CCc3c([nH]c4ccccc34)[C@@](C(=O)OC)(c3cc4c(cc3OC)N(C)[C@H]3[C@@](O)(C(=O)OC)[C@H](OC(C)=O)[C@]5(CC)C=CCN6CC[C@]43[C@@H]65)C2)C1 [vinblastine]
Canine iUC
  PR, percent of dogs: 22%
